The record followed here is PubChem BioAssay AID602334 (Sanford-Burnham Center for Chemical Genomics, 2012).

pEC50: −log10 of the molar value. “And” between values parts separate entries of the source, which are not always exact repeats. Equal values may be shown once. The source made the active and inactive calls. The rule behind the calls is not given here.

Neurotensin receptor type 2 (Homo sapiens), sequence (O95665 whole entry, looked up): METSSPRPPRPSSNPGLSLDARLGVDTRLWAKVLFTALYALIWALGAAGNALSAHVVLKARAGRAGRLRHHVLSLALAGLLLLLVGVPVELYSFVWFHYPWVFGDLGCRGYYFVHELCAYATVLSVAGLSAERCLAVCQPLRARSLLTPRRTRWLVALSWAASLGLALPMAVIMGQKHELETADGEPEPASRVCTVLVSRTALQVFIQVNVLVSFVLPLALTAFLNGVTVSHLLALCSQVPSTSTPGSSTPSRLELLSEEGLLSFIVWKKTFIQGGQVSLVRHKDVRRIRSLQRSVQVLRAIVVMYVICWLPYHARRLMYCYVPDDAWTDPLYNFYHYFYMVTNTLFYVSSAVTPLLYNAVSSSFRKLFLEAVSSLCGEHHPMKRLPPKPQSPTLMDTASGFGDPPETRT

This assay addresses Neurotensin receptor type 2 (Homo sapiens) (UniProt O95665). As to the kind of experiment: activation of neurotensin receptor 2 – imaging, image-based, set 2, selectivity assay for NTR1 agonist project, SAR follow-up (AID 602334). As to conditions: NTR2-expressing cells, image-based receptor agonism assay.
By EC50 is commonly meant the midpoint of the concentration-response curve. Consider `COc1ccc2nc(C3CCC3)nc(N3CCN(c4ccccc4OC)CC3)c2c1`, for which the EC50 is > 80 µM (inactive). Broadly, the pEC50 is the EC50 on a negative log10 scale, so that one unit is a factor of ten. For `COc1ccc(Cn2cc3c(-c4ccc(F)cc4)nnc-3c3cc(OC)c(OC)cc32)cc1`, the negative-log EC50 (pEC50) is 4.83.

With `COc1cc2nc(C3CCC3)nc(N3CCN(c4c(C)cccc4C)CC3)c2cc1OC`, the EC50 is > 80 µM (inactive). Still for that read-out and setting: as for `COc1cccc(OC)c1-c1nc(C(=O)N[C@@H](CC(C)C)C(=O)O)cn1-c1ccnc2ccccc12`, the figure is > 80 µM (inactive).

On to `COc1cc2c3nnc(-c4ccc(C)cc4)c-3cn(Cc3ccc(C)cc3)c2cc1OC`, for which the negative-log EC50 (pEC50) was 4.90. On to `COc1cc2nc(C3CCC3)nc(N3CCN(c4ccccc4OC)CC3)c2cc1OC`, for which the EC50 is > 80 µM (inactive). On to `COc1ccc2c3nnc(-c4ccc(C)cc4)c-3cn(Cc3ccc(C)cc3)c2c1`, for which the EC50 was > 80 µM (inactive). Still for that read-out and setting: as for `COc1cc2c3nnc(-c4ccc(F)cc4)c-3cn(Cc3ccncc3)c2cc1OC`, the figure is > 80 µM (inactive).

Consider `COc1cc2c3nnc(-c4ccc(F)cc4)c-3cn(Cc3cccc(C)c3)c2cc1OC`, for which the pEC50 is 4.99 and 5.03. Regarding `COc1cc2c3nnc(-c4ccc(C)c(C)c4)c-3cn(Cc3ccccc3)c2cc1OC`, the EC50 is > 80 µM (inactive). The same measure, in the same setting: with `COc1cc2nc(CC3CC3)nc(N3CCN(c4ccccc4OC)CC3)c2cc1OC` the figure was > 80 µM (inactive). For the compound `COc1cccc(OC)c1-c1nc(C(=O)N[C@@H](CC(C)C)C(=O)O)cn1-c1ccnc2cc(Cl)ccc12`, the EC50 is > 80 µM (inactive). `COc1ccc2c(c1)c1nnc(-c3ccc(F)cc3)c-1cn2Cc1ccccc1`: the pEC50 is 4.77. As for `COc1ccccc1CN1CCN(c2nc(C3CC3)nc3cc(OC)c(OC)cc23)CC1`, the EC50 is > 80 µM (inactive). Take `COc1cc2nc(C3CC3)nc(N3CCN(c4ccccc4OC)CC3)c2cc1OC`: the EC50 was > 80 µM (inactive). As to `Cc1ccc(Cn2cc3c(-c4ccc(F)cc4)nnc-3c3cc4c(cc32)OCO4)cc1`, the EC50 is > 80 µM (inactive). Still for that read-out and setting: with `COc1ccc2c3nnc(-c4ccc(C)cc4)c-3cn(Cc3ccccc3)c2c1` the entry was “inactive”; with `COc1cc2nc(C3CCC3)nc(N3CCN(c4ccccn4)CC3)c2cc1OC`, > 80 µM (inactive); with `COc1cc2c3nnc(-c4ccc(C)c(C)c4)c-3cn(Cc3ccc(F)cc3)c2cc1OC`, “inactive”. For `COc1cc2c3nnc(-c4ccc(F)cc4)c-3cn(Cc3ccccc3N(C)C)c2cc1OC`, the pEC50 was 5.36 and 5.43. On to `COc1cc2c3nnc(-c4ccccc4)c-3cn(Cc3ccccc3)c2cc1OC`, for which the EC50 result is “inactive”. For the compound `COc1cc2nc(C3CCC3)nc(N3CCN(c4ccccc4)CC3)c2cc1OC`, the EC50 was > 80 µM (inactive). Still for that read-out and setting: as for `CCOc1ccccc1N1CCN(c2nc(C3CC3)nc3cc(OC)c(OC)cc23)CC1`, the figure is > 80 µM (inactive). For the compound `COc1cc2c3nnc(-c4ccc(C)cc4)c-3cn(Cc3ccc(F)cc3)c2cc1OC`, the pEC50 is 5.04. For the compound `COc1cc2nc(C3CC3)nc(N3CCN(C(=O)OC(C)(C)C)CC3)c2cc1OC`, the EC50 was > 80 µM (inactive). On the same count and under the same terms, with `COc1cccc(OC)c1-c1cc(C(=O)N[C@@H](CC(C)C)C(=O)OC(C)(C)C)nn1-c1ccnc2cc(Cl)ccc12` the figure was > 80 µM (inactive).

Consider `COc1cc2c3nnc(-c4ccc(Cl)cc4)c-3cn(Cc3ccccc3)c2cc1OC`, for which the pEC50 was 5.07. With `COc1cccc(OC)c1-c1cc(C(=O)N[C@@H](CC(C)C)C(=O)O)nn1-c1ccnc2cc(Cl)ccc12`, the EC50 was > 80 µM (inactive). Consider `CCc1nc(N2CCN(c3ccccc3OC)CC2)c2cc(OC)c(OC)cc2n1`, for which the EC50 is > 80 µM (inactive). For the compound `Fc1ccc(Cn2cc3c(-c4ccc(F)cc4)nnc-3c3cc4c(cc32)OCO4)cc1`, the EC50 result was “inactive”. Same read-out and setting: as for `Fc1ccc(-c2nnc3c4cc5c(cc4n(Cc4ccccc4)cc2-3)OCO5)cc1`, the figure is > 80 µM (inactive). On the same count and under the same terms, as for `COc1ccccc1-c1cc(C(=O)N[C@@H](CC(C)C)C(=O)O)nn1-c1ccnc2cc(Cl)ccc12`, the figure is > 80 µM (inactive); as for `Cc1ccc(-c2nnc3c4cc5c(cc4n(Cc4ccc(F)cc4)cc2-3)OCO5)cc1`, “inactive”. Take `COc1cc2c3nnc(-c4ccc(F)cc4)c-3cn(Cc3ccc(C)cc3C)c2cc1OC`: the pEC50 is 4.96. Regarding `Cc1cccc(C)c1-c1nc(C(=O)N[C@@H](CC(C)C)C(=O)O)cn1-c1ccnc2cc(Cl)ccc12`, the EC50 was > 80 µM (inactive). Regarding `COc1cc2c3nnc(-c4ccccc4)c-3cn(Cc3ccc(F)cc3)c2cc1OC`, the EC50 was > 80 µM (inactive). In the case of `COc1cc2nc(CCN(C)C)nc(N3CCN(c4ccccc4OC)CC3)c2cc1OC`, the EC50 was > 80 µM (inactive). On the same count and under the same terms, with `COc1ccc(N2CCN(c3nc(C4CCC4)nc4cc(OC)c(OC)cc34)CC2)c(OC)c1` the figure was > 80 µM (inactive). Consider `COc1cccc(OC)c1-c1nc(C(=O)N[C@@H](CC(C)C)C(=O)O)cn1-c1cccc2ccccc12`, for which the EC50 is > 80 µM (inactive).

For `Cc1ccc(Cn2cc3c(-c4ccc(C)c(C)c4)nnc-3c3cc4c(cc32)OCO4)cc1`, the EC50 entry is “inactive”.

With `COc1ccc(-c2nnc3c4cc(OC)c(OC)cc4n(Cc4ccccc4)cc2-3)cc1`, the EC50 result was “inactive”. On the same count and under the same terms, with `COc1cc2nc(C3CC3)nc(N3CCN(S(=O)(=O)c4ccccc4)CC3)c2cc1OC` the figure was > 80 µM (inactive).

On to `COc1cc2c3nnc(-c4ccc(F)cc4)c-3cn(Cc3ccc(C)cc3)c2cc1OC`, for which the pEC50 is 4.82 and 4.80. Take `C=Cc1nc(N2CCN(c3ccccc3OC)CC2)c2cc(OC)c(OC)cc2n1`: the EC50 was > 80 µM (inactive). Consider `COc1cc2nc(C3CCC3)nc(N3CCN(c4ccccc4[N+](=O)[O-])CC3)c2cc1OC`, for which the EC50 was > 80 µM (inactive). For the compound `COc1cc2nc(C3CCCC3)nc(N3CCN(c4ccccc4OC)CC3)c2cc1OC`, the EC50 was > 80 µM (inactive). For `CCc1ccc(-c2nnc3c4cc(OC)c(OC)cc4n(Cc4ccc(F)cc4)cc2-3)cc1`, the EC50 result was “inactive”. Same read-out and setting: with `COc1cc2nc(C3CCC3)nc(N3CCN(c4ccccc4C)CC3)c2cc1OC` the figure was > 80 µM (inactive); with `COc1cc2nc(C3CC3)nc(N3CCN(Cc4ccc(C)cc4)CC3)c2cc1OC`, > 80 µM (inactive).

Regarding `COc1cc2nc(C3CC3)nc(N3CCN(C(=O)c4ccccc4)CC3)c2cc1OC`, the EC50 is > 80 µM (inactive). For the compound `COc1cc2nc(C(C)C)nc(N3CCN(c4ccccc4OC)CC3)c2cc1OC`, the EC50 is > 80 µM (inactive).

In the case of `COc1cc2c3nnc(-c4ccc(F)cc4)c-3cn(Cc3ccc(F)cc3)c2cc1OC`, the EC50 entry was “inactive”.

As to `CC(C)C[C@H](NC(=O)c1cn(-c2ccnc3cc(Cl)ccc23)c(-c2c(Cl)cccc2Cl)n1)C(=O)O`, the EC50 was > 80 µM (inactive). Still for that read-out and setting: as for `COc1cccc(OC)c1-c1nc(C(=O)N[C@H](CC(C)C)C(=O)O)cn1-c1ccnc2cc(Cl)ccc12`, the figure is > 80 µM (inactive); as for `Fc1ccc(Cn2cc3c(-c4ccc(Cl)cc4)nnc-3c3cc4c(cc32)OCO4)cc1`, “inactive”. The same measure, in the same setting: as for `COc1ccc2c3nnc(-c4ccc(C)cc4)c-3cn(Cc3ccc(F)cc3)c2c1`, the figure is > 80 µM (inactive); as for `CCOc1ccc(-c2nnc3c4cc(OC)c(OC)cc4n(Cc4ccc(C)cc4)cc2-3)cc1`, > 80 µM (inactive). For the compound `COc1cc2c3nnc(-c4ccc(F)cc4)c-3cn(Cc3ccccc3)c2cc1OC`, the pEC50 is 5.03 and 5.14. In the case of `COc1cc2c3nnc(-c4ccc(Cl)cc4)c-3cn(Cc3ccc(C)cc3)c2cc1OC`, the EC50 is > 80 µM (inactive). On the same count and under the same terms, with `CCCc1nc(N2CCN(c3ccccc3OC)CC2)c2cc(OC)c(OC)cc2n1` the figure was > 80 µM (inactive).

For the compound `COc1ccc(-c2nnc3c4cc(OC)c(OC)cc4n(Cc4ccc(C)cc4)cc2-3)cc1`, the pEC50 is 4.97. As to `COc1cc2nc(Cc3ccccc3)nc(N3CCN(c4ccccc4OC)CC3)c2cc1OC`, the EC50 is > 80 µM (inactive).

As to `CCOc1ccc(-c2nnc3c4cc(OC)c(OC)cc4n(Cc4ccc(F)cc4)cc2-3)cc1`, the EC50 is > 80 µM (inactive). Same read-out and setting: with `COc1cc2nc(C3CC3)nc(N3CCN(c4ccccc4Cl)CC3)c2cc1OC` the figure was > 80 µM (inactive); with `CCOc1ccc(-c2nnc3c4cc(OC)c(OC)cc4n(Cc4ccccc4)cc2-3)cc1`, > 80 µM (inactive).

Take `Cc1ccc(-c2nnc3c4cc5c(cc4n(Cc4ccccc4)cc2-3)OCO5)cc1C`: the pEC50 is 5.75. As for `COc1cc2nc(C3CC3)nc(N3CCNCC3)c2cc1OC`, the EC50 was > 80 µM (inactive). On to `COc1cc2c3nnc(-c4ccc(F)cc4)c-3cn(Cc3ccccc3C)c2cc1OC`, for which the pEC50 was 5.16.

For the compound `COc1cc2nc(C3CC3)nc(N3CCN(C(=O)c4ccccc4OC)CC3)c2cc1OC`, the EC50 is > 80 µM (inactive).

With `COc1cc2c3nnc(-c4ccc(F)cc4)c-3cn(Cc3ccc(Cl)cc3)c2cc1OC`, the negative logarithm of the EC50 (pEC50) was 4.80. The same measure, in the same setting: as for `COc1cc2c3nnc(-c4ccc(F)cc4)c-3cn(Cc3ccccc3F)c2cc1OC`, the figure is 5.44. As to `COc1ccc2nc(C3CC3)nc(N3CCN(c4ccccc4OC)CC3)c2c1`, the EC50 was > 80 µM (inactive).

As to `COc1cc2nc(CC(C)C)nc(N3CCN(c4ccccc4OC)CC3)c2cc1OC`, the EC50 was > 80 µM (inactive). As to `COc1cc2nc(CCN3CCN(c4ccccc4OC)CC3)nc(N3CCN(c4ccccc4OC)CC3)c2cc1OC`, the EC50 is > 80 µM (inactive). Same read-out and setting: with `COc1cc2nc(C3CCC3)nc(N3CCN(c4ccccc4F)CC3)c2cc1OC` the figure was > 80 µM (inactive). On to `COc1cc2c3nnc(-c4ccc(Cl)cc4)c-3cn(Cc3ccc(F)cc3)c2cc1OC`, for which the negative-log EC50 (pEC50) is 5.08. On to `COc1ccc2c(c1)c1nnc(-c3ccc(F)cc3)c-1cn2Cc1ccc(F)cc1`, for which the EC50 entry was “inactive”.

As for `COc1cc2nc(C3CCC3)nc(N3CCN(c4ccccc4Cl)CC3)c2cc1OC`, the EC50 was > 80 µM (inactive).
